The results in this text go back to US12653860B2, “Compositions and methods for editing beta-globin for treatment of hemaglobinopathies” (Vertex Pharmaceuticals Incorporated, priority 2019, dated 2026).

The subject of assay [1] is HBB gene in CD34-expressing LT-HSPCs derived from human patients with sickle cell disease. Description: INDELs at R02 cut site in SCD patient-derived LT-HSPCs, NGS. It counts as cell-based. Particulars: FIG. 30B.
Description: Editing of cells was performed following two days of in vitro culture. Briefly, 5×10^5 cells were electroporated with RNP containing 20 g SpCas9 and 20 μg R02 sgRNA, AAV.323 at a dose of 10,000 MOI, and 1 g mRNA encoding i53. The cells were incubated with AAV.323 for 1 hour prior to electroporation. The cells were edited by electroporation with R02+AAV.323+i53 mRNA and compared to control cells edited with R02 only, R02+AAV.323, or cells exposed to electroporation without RNP or AAV editing components (mock EP).
The efficiency of gene correction by HDR repair at the HBB gene locus was evaluated by NGS assay as described in Example 3. Frequency of INDELs at the R02 cut site was evaluated by NGS analysis. […] Additionally, HDR repair and INDEL formation were compared at day 0 and day 14 post-editing.
The test system of assay [2] is HBB locus in CD34-expressing LT-HSPCs. Description: HDR insertion of AAV GFP donor at HBB locus (GFP fluorescence). To be noted: for HDR efficiency: 0.75 g mRNA encoding i53, 5 μM Nu7441, DM control mRNA, FIG. 6C. It is filed as cell-based, human. The protocol:
Frozen CD34-expressing LT-HSPCs derived from plerixafor (i.e., Mozibil®)+GCSF-dual mobilized peripheral blood obtained from healthy human donors were purchased from a commercial vendor. LT-HSPCs were maintained in culture media comprised of the reagents shown in Table 4 and were incubated at 37° C., 5% carbon dioxide, 4% oxygen. […] 2×10^5 cells were edited with 3 g Cas9 and 3 g gRNA. The target gene sequence (including target sequence with PAM), R02 spacer sequence, and R02 sgRNA sequence are identified in Table 3.
The cells were transfected with a dsDNA homology donor encoding GFP under a SFFV promoter (SEQ ID NO: 60) that was delivered by AAV (SEQ ID NO: 56). […] The HDR efficiency was determined by measuring the level of GFP fluorescence in the cells following electroporation. To determine the effect of 53BP1 inhibition on HDR efficiency, the 53BP1 inhibitor i53 was introduced as an mRNA-encoded protein to the cells during electroporation with Cas9/gRNA RNP and AAV DNA that serves as a donor for homology directed repair.
The effect of 53BP1 inhibition on HDR efficiency was compared to other mRNA-encoded proteins that inhibit the NHEJ pathway. These included the proteins CYREN1 and CYREN2 that inhibit Ku70/80, a heterodimer that binds DNA blunt ends to prevent processing of 3′ single-stranded DNA tails necessary for HDR repair. Cells were electroporated with RNP, an AAV-GFP homology donor and mRNA encoding either i53 (mRNA ORF shown in SEQ ID NO: 69), CYREN1, or CYREN2.
The effect of treatment with i53 and Nu7441 was compared for improving efficiency of HDR repair of the HBB locus. Cells were treated with different doses of Nu7441 or with mRNA encoding i53 (ORF shown by SEQ ID NO: 69).

Assay [3] shares this test system. Description: HDR incorporation of sickle (E7V) edit at HBB locus in vitro, NGS assay. It counts as cell-based, human. Particulars: for incorporation of the E7V gene edit: 1 μg mRNA encoding i53. The text has this: The cells were electroporated with 1 g mRNA encoding i53.
The subject of assay [4] is cKit mice. Description: Engraftment (percent chimerism) of edited human LT-HSPCs in irradiated mice. It is filed as in vivo. To be noted: for chimerism in bone marrow: FIG. 24B. The protocol: The cells were administered by intravenous injection to cKit mice at 2 days following electroporation. Recipient mice were treated with sublethal irradiation (100 cGy) at 1 day prior to administration of LT-HSPCs to eliminate hematopoietic cells in the bone marrow and enable engraftment of the donor cells. Animals were evaluated for presence of human hematopoietic cells in peripheral blood at 8 and 16 weeks following LT-HSPC administration. The bone marrow was also evaluated for engraftment and maintenance of the HBB gene-edit at 16 weeks following LT-HSPC administration.
Presence of human hematopoietic cells was measured by flow cytometry in mouse blood or bone marrow samples. Cells were gated on singlet, live cells. Mouse and human CD45-expressing hematopoietic cells were distinguished by antibodies targeting mouse or human CD45. Engraftment was measured as percent chimerism which was defined as the quantity of human CD45 positive cells divided by the total number of CD45 positive cells (e.g., human and mouse CD45 expressing cells combined). The lineage of human CD45 positive cells was determined using markers for CD19 (e.g., B cells), CD3 (e.g., T cells), CD33 (e.g., myeloid cells), and CD34 (hematopoietic stem/progenitor cells (HSPCs)).
Human LT-HSPCs were administered to mice following electroporation with Cas9/gRNA and AAV encoding a sickle cell mutation (E7V) as shown in FIG. 21. LT-HSPCs were mobilized from healthy donors using plerixafor. LT-HSPCs were gene-edited following 2 days in culture. […] 1×10^6 cells were edited with 20 g Cas9 and 20 g gRNA.
A dose of 0.5×10^6 cells was administered by intravenous injection to cKit mice at 2 days following electroporation. Recipient mice were treated with sublethal irradiation (100 cGy) at 1 day prior to administration of LT-HSPCs to eliminate hematopoietic cells in the bone marrow and enable engraftment of the donor cells. Animals were evaluated for presence of human hematopoietic cells in peripheral blood at 8 and 16 weeks following LT-HSPC administration. The bone marrow was also evaluated for engraftment and maintenance of the HBB gene-edit at 16 weeks following LT-HSPC administration.

Assay [5] has as its system HBB gene locus in CD34-expressing LT-HSPCs. Description: HDR efficiency at HBB gene with R02 RNP+AAV.307 and DNA-PK inhibitors, NGS. It counts as cell-based, human. Particulars: 1 μg i53 mRNA; R02 RNP+AAV.307. The protocol:
(§1) Editing was performed as described above. However, the cells were electroporated with AAV.307 administered 1 hour prior to electroporation at a dose of 10,000 MOI. The cells were electroporated with compound 296 at a concentration ranging from 0.005 μM to 10 μM, with compound 984 at a concentration ranging from 0.005 μM to […], or with 1 μg i53 mRNA. Negative control cells were electroporated with RNP+AAV only or RNP only.
(§2) Edited cells were evaluated for viability as described above, and for incorporation of gene-edits at 2 days post-electroporation. […] The frequency of INDELs induced at the R02 cut site was also evaluated by NGS analysis.

Assay [6] shares this test system. Description: INDEL frequency and species at R02 cut site with DNA-PK inhibitors, NGS. To be noted: 1 μg i53 mRNA; R02 RNP+AAV.307. It counts as cell-based, human. The method, then:
as §1, §2
The INDELs species identified for cells edited in Experiment 2 were further evaluated to determine frequency of repair by NHEJ or MMEJ repair pathways. An INDEL of 1 nt was considered due to NHEJ repair; a deletion of −9 nt was considered due to MMEJ repair based on the microhomology present on either side of the R02 cut site. Based on percentage of total reads corresponding to these INDEL species, the ratio of gene edits due to NHEJ and MMEJ repair was evaluated.

In assay [7] the test system is AAVS1 locus in hTERT RPE-1 cells. Description: HDR insertion of AAV GFP donor at AAVS1 locus in hTERT RPE-1 cells. It counts as cell-based, human. Particulars: mRNA encoding i53; AAV 25,000 MOI; FIG. 7. The protocol: RPE1 cells were lipofected with RNP comprised of Cas9 protein and gRNA targeting the AAVS1 locus (target sequence shown in SEQ ID NO: 3; spacer sequence shown in SEQ ID NO: 4). Cells were edited with 1 g Cas9 and 1 g gRNA. Cells were infected with AAV containing homology donor DNA encoding GFP (DJ serotype) as well as mRNA encoding i53 (mRNA ORF shown in SEQ ID NO: 69). […] HDR efficiency was determined by measuring the level of GFP fluorescence in the cells following gene-editing.

“Also recorded” adds a separate entry of the source.

Consider “i53: polypeptide inhibitor of 53BP1 (SEQ ID NO: 70), delivered as mRNA (ORF SEQ ID NO: 69)”, for which the “frequency of INDELs at the R02 cut site, fold lower than RNP+AAV.323 alone” value in assay [1] is reported as 1.9 fold. In addition, the HDR efficiency entry in assay [2] is listed as “comparable increase in HDR efficiency”. Besides, the “HDR efficiency vs RNP+AAV-only” value in assay [2] (i53 mRNA 0.5, 1, 2 g (FIG. 6A) or 0.3 g, 1 g (FIG. 6B), CYREN1 or CYREN2 mRNA, any dose of XL413 (data not shown)) was “improved HDR efficiency; also recorded: increased HDR efficiency”. The “HDR efficiency, fold increase over RNP+AAV-only” value in assay [2] (mRNA encoding i53, AAV GFP donor 5,000 MOI, FIG. 6A) is given as “approximately 1.3 fold”. The “incorporation of the E7V gene edit” value is given as 58% in assay [3] (pre-EP AAV.304, FIG. 22B) and 68% in assay [3] (AAV.307 + Cas9/R02 RNP, FIG. 10). In assay [3] (LT-HSPCs mobilized by Mozobil alone, i53, FIG. 12B), the “cells incorporating the sickle cell gene-edit” value was “approximately 70%”. In addition, the “HDR efficiency, fold increase over RNP+AAV alone” value in assay [3] (LT-HSPCs mobilized by Mozobil+GCSF, FIG. 12A) is “approximately 1.5 fold”. In assay [3] (LT-HSPCs mobilized by Mozobil+GCSF, i53, FIG. 12A), the “incorporation of the sickle cell gene-edit by HDR” value is recorded as “approximately 60%”. In addition, the “percent chimerism in bone marrow” value in assay [4] (16 weeks, 0.25×10^6 LT-HSPCs, AAV.307, FIG. 16) is reported as “no further decrease in chimerism”. Further, the “chimerism in bone marrow” value in assay [4] (16 weeks, AAV.304) was “comparable to RNP+AAV alone”. The “levels of chimerism in blood” value in assay [4] (blood 8 and 16 weeks, 0.5×10^6 cells, AAV.304, FIG. 23B) is “comparable to RNP+AAV alone”. Also, in assay [5], the “level of HDR repair” value worked out at 59%. In addition, in assay [6], the “frequency of INDELs relative to control cells” value is “reduced frequency of INDELs”. Further, the “HDR efficiency over AAV alone” value in assay [7] is recorded as “increase in HDR efficiency”.

Regarding `O=c1cc(N2CCOCC2)oc2c(-c3cccc4c3sc3ccccc34)cccc12` [Nu7441], the HDR efficiency entry in assay [2] is on record as “comparable increase in HDR efficiency”. In addition, the “HDR efficiency over RNP+AAV alone” value in assay [3] (5 μM Nu7441, pre-EP AAV.304, FIG. 22B) is “no improvement of HDR efficiency”. Moreover, the “chimerism in blood, fold increase over RNP+AAV alone” value in assay [4] (8 and 16 weeks, 5 μM Nu7441, FIG. 23B) is 2.5 fold. For the same molecule, the “chimerism in bone marrow” value in assay [4] (16 weeks, AAV.304) is “higher than RNP+AAV alone”. In addition, the chimerism in blood entry in assay [4] (both 8 and 16 weeks, 5 μM Nu7441, AAV.304, FIG. 23B) is listed as “approximately 25%”.
